Where no end group is shown, it is not given here.
B1: C5 (peptide)
peptide: LDVVIHTVTYGDR
notes: from the Ciona intestinalis trypsin hydrolysate; written as one molecule; The parent protein is not known; also called peptide C5; source: trypsin hydrolysate of Ciona intestinalis (AUF); synthetic peptide, GuoPing Pharmaceutical (HTRF, SPR)
B2: S2 (peptide)
peptide: VLRDNIQGITKPAIR
notes: from the Styela clava trypsin hydrolysate; candidate protein: Histone H4 (Transparent ascidian); the text says that it exactly matches Histone H4 of Ciona savignyi; written as one molecule; also called peptide S2; source: trypsin hydrolysate of Styela clava (AUF); synthetic peptide, GuoPing Pharmaceutical (HTRF, SPR)

Assays:
CT26 tumor = settings: 2 mg/kg, CT26 tumor-bearing mice; cited from earlier work
Excerpt: (§1) With continuous progress of modern separation and analysis techniques, high-throughput screening methods for enzyme inhibitory peptides have emerged as powerful tools in the discovery of bioactive peptides. Recently, the methodologies based on the phage display library, bacteria display library, and peptide fragment of proteins have been applied in screening for PD-L1 inhibitors.

Water-solubility = assay type: physicochemical; settings: qualitative statement
PD-1/PD-L1 binding = settings: read-out: PD-1/PD-L1 inhibitory IC50; cited from earlier work
Excerpt: as §1

Tag1-PD-L1 protein = Tag1-PD-L1 protein (UniProt Q9NZQ7 19-238); assay: AlphaScreen or HTRF; Cisbio PD-1/PD-L1 HTRF binding assay kit; competition: analyte with Tag1-PD-L1 and Tag2-PD-1 for 15 min at room temperature, then anti-Tag1-Eu3+ and anti-Tag2-XL665 for 2 h at room temperature; settings: both partners purified
[1] = biological target: T1, recombinant human PD-L1 (residue 18–239, extracellular domain) (human, UniProt Q9NZQ7 18-239); assay: SPR; Biacore T200, 25 °C; PD-L1 amine-coupled on a CM5 chip to about 5600 RU; peptides injected in PBS-P (1% DMSO) at 30 µL/min, 60 s contact, 60 s dissociation; settings: both partners purified
T1 construct: Programmed death ligand 1 (PD-L1, B7-H1, CD274), human, residues 18-239, extracellular domain; The limits 18-239 are told for the SPR experiment; No tag is stated; also called programmed death ligand 1; source: bought: Abcam (recombinant, 25 kDa)

Molecule	IC50 (Tag1-PD-L1 protein)	Kd [1]	other results
NYSKPTDRQYHF [^DPPA-1]			prolongation of survival time (CT26 tumor): ~50%; tumor growth (CT26 tumor): inhibited the tumor growth
LDVVIHTVTYGDR [C5]			water-solubility (Water-solubility): poor
CKWYRPSEC [cyclic peptide C8, not the ascidian peptide C8]			IC50 (PD-1/PD-L1 binding): < 10 µM
B1	33.9 µM	22.9 µM	
B2	113 µM	29.1 µM	
